# Where “and” joins values, the source holds several entries; their conditions need not be identical. Equal values may be shown once.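 Briefly, cells in 96-well plates were exposed to five compound concentrations for 48 h, and endpoints were estimated by linear interpolation. GI50: concentration for 50% inhibition of growth. TGI denotes the concentration required for complete inhibition of growth.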
# Test system: HL-60(TB) leukemia
# Assay: NCI-60 cell line screen, 48 h
SMILES,TGI [µM],GI50 [µM]
O=c1c2ccccc2nc(-c2ccccc2)n1NC(=S)Nc1ccccc1,> 100,–
Cn1cc(-c2ccc(-c3cncc(Cl)c3N3CCC4(CCNC4=O)CC3)cc2)cn1,55.5,20.4
CC/C=C/C/C=C/C/C=C/C/C=C/C/C=C/C/C=C/CCC(=O)Nc1ccn([C@@H]2O[C@H](CO)[C@@H](O)C2(F)F)c(=O)n1,9.24,0.059
O=c1nc(-c2ccccc2)cc(-c2ccccc2O)[nH]1,> 100,–
Oc1ccc(Br)cc1C=Nc1ccc(N=Cc2cc(Br)ccc2O)cc1,> 100,–
C/C(=N\NC(=S)N1CC2CCC(CC2)C1)c1ccccn1,1.21,0.0482
O=C(NCc1ccc(S(=O)(=O)c2cc(F)cc(F)c2)cc1)c1ccc2nccn2c1,> 100,> 40.2
NC(=S)N/N=C/c1cc(-c2cccc(N)c2)ccn1,–,0.281
C=CCn1c2c(sc1=S)C(S)N=CN2 (stereo unspecified),> 100,–
O=[N+]([O-])c1ccc(CSCc2ccc(Cl)cc2)cc1,> 100,–
CCOc1ccccc1NC(=O)C(C#N)C1=C(Cl)C(=O)c2ccccc2C1=O (stereo unspecified),–,2.85

# Test system: RPMI-8226 leukemia
# Assay: NCI-60 cell line screen, 48 h
SMILES,TGI [µM],GI50 [µM]
O=c1c2ccccc2nc(-c2ccccc2)n1NC(=S)Nc1ccccc1,> 100,–
Cn1cc(-c2ccc(-c3cncc(Cl)c3N3CCC4(CCNC4=O)CC3)cc2)cn1,95.3,17
CC/C=C/C/C=C/C/C=C/C/C=C/C/C=C/C/C=C/CCC(=O)Nc1ccn([C@@H]2O[C@H](CO)[C@@H](O)C2(F)F)c(=O)n1,39,0.245
O=c1nc(-c2ccccc2)cc(-c2ccccc2O)[nH]1,> 100,–
Oc1ccc(Br)cc1C=Nc1ccc(N=Cc2cc(Br)ccc2O)cc1,> 100,–
C/C(=N\NC(=S)N1CC2CCC(CC2)C1)c1ccccn1,0.78,0.0368
O=C(NCc1ccc(S(=O)(=O)c2cc(F)cc(F)c2)cc1)c1ccc2nccn2c1,> 100,–
NC(=S)N/N=C/c1cc(-c2cccc(N)c2)ccn1,28.7,0.446
C=CCn1c2c(sc1=S)C(S)N=CN2 (stereo unspecified),> 100,–
O=[N+]([O-])c1ccc(CSCc2ccc(Cl)cc2)cc1,> 100,–
CCOc1ccccc1NC(=O)C(C#N)C1=C(Cl)C(=O)c2ccccc2C1=O (stereo unspecified),–,3.34

# Test system: SW-620 colon
# Assay: NCI-60 cell line screen, 48 h
SMILES,TGI,GI50 [µM]
O=c1c2ccccc2nc(-c2ccccc2)n1NC(=S)Nc1ccccc1,> 100 µM,–
Cn1cc(-c2ccc(-c3cncc(Cl)c3N3CCC4(CCNC4=O)CC3)cc2)cn1,> 100 µM,47.7
CC/C=C/C/C=C/C/C=C/C/C=C/C/C=C/C/C=C/CCC(=O)Nc1ccn([C@@H]2O[C@H](CO)[C@@H](O)C2(F)F)c(=O)n1,47.6 µM,0.148
O=c1nc(-c2ccccc2)cc(-c2ccccc2O)[nH]1,> 100 µM,–
Oc1ccc(Br)cc1C=Nc1ccc(N=Cc2cc(Br)ccc2O)cc1,> 100 µM,–
C/C(=N\NC(=S)N1CC2CCC(CC2)C1)c1ccccn1,1.57 µM,0.033
O=C(NCc1ccc(S(=O)(=O)c2cc(F)cc(F)c2)cc1)c1ccc2nccn2c1,> 100 µM,< 0.01
NC(=S)N/N=C/c1cc(-c2cccc(N)c2)ccn1,> 81.8 µM,3.45
C=CCn1c2c(sc1=S)C(S)N=CN2 (stereo unspecified),> 100 µM,–
O=[N+]([O-])c1ccc(CSCc2ccc(Cl)cc2)cc1,> 100 µM,–
CCOc1ccccc1NC(=O)C(C#N)C1=C(Cl)C(=O)c2ccccc2C1=O (stereo unspecified),3.45 µM and 6.68 µM,2.81

# Test system: SR leukemia
# Assay: NCI-60 cell line screen, 48 h
SMILES,TGI [µM],GI50 [µM]
O=c1c2ccccc2nc(-c2ccccc2)n1NC(=S)Nc1ccccc1,> 100,–
Cn1cc(-c2ccc(-c3cncc(Cl)c3N3CCC4(CCNC4=O)CC3)cc2)cn1,21.2,1.68
CC/C=C/C/C=C/C/C=C/C/C=C/C/C=C/C/C=C/CCC(=O)Nc1ccn([C@@H]2O[C@H](CO)[C@@H](O)C2(F)F)c(=O)n1,8.3,0.0387
O=c1nc(-c2ccccc2)cc(-c2ccccc2O)[nH]1,> 100,–
Oc1ccc(Br)cc1C=Nc1ccc(N=Cc2cc(Br)ccc2O)cc1,> 100,–
C/C(=N\NC(=S)N1CC2CCC(CC2)C1)c1ccccn1,2.22,0.0424
O=C(NCc1ccc(S(=O)(=O)c2cc(F)cc(F)c2)cc1)c1ccc2nccn2c1,> 100,–
NC(=S)N/N=C/c1cc(-c2cccc(N)c2)ccn1,> 27.9,0.346
C=CCn1c2c(sc1=S)C(S)N=CN2 (stereo unspecified),> 100,–
O=[N+]([O-])c1ccc(CSCc2ccc(Cl)cc2)cc1,> 100,–
CCOc1ccccc1NC(=O)C(C#N)C1=C(Cl)C(=O)c2ccccc2C1=O (stereo unspecified),3.73,–

# Test system: SF-295 CNS
# Assay: NCI-60 cell line screen, 48 h
SMILES,TGI,GI50 [µM]
O=c1c2ccccc2nc(-c2ccccc2)n1NC(=S)Nc1ccccc1,> 100 µM,–
Cn1cc(-c2ccc(-c3cncc(Cl)c3N3CCC4(CCNC4=O)CC3)cc2)cn1,> 100 µM,66.7
CC/C=C/C/C=C/C/C=C/C/C=C/C/C=C/C/C=C/CCC(=O)Nc1ccn([C@@H]2O[C@H](CO)[C@@H](O)C2(F)F)c(=O)n1,19.8 µM,0.11
O=c1nc(-c2ccccc2)cc(-c2ccccc2O)[nH]1,> 100 µM,–
Oc1ccc(Br)cc1C=Nc1ccc(N=Cc2cc(Br)ccc2O)cc1,> 100 µM,–
C/C(=N\NC(=S)N1CC2CCC(CC2)C1)c1ccccn1,2.08 µM,0.178
O=C(NCc1ccc(S(=O)(=O)c2cc(F)cc(F)c2)cc1)c1ccc2nccn2c1,> 95.3 µM,15.8
NC(=S)N/N=C/c1cc(-c2cccc(N)c2)ccn1,31 µM,1.66
C=CCn1c2c(sc1=S)C(S)N=CN2 (stereo unspecified),> 100 µM,–
O=[N+]([O-])c1ccc(CSCc2ccc(Cl)cc2)cc1,> 100 µM,–
CCOc1ccccc1NC(=O)C(C#N)C1=C(Cl)C(=O)c2ccccc2C1=O (stereo unspecified),3.13 µM and 3.19 µM,–

# Test system: LOX IMVI melanoma
# Assay: NCI-60 cell line screen, 48 h
SMILES,TGI,GI50 [µM]
O=c1c2ccccc2nc(-c2ccccc2)n1NC(=S)Nc1ccccc1,> 100 µM,–
Cn1cc(-c2ccc(-c3cncc(Cl)c3N3CCC4(CCNC4=O)CC3)cc2)cn1,> 100 µM,77.1
CC/C=C/C/C=C/C/C=C/C/C=C/C/C=C/C/C=C/CCC(=O)Nc1ccn([C@@H]2O[C@H](CO)[C@@H](O)C2(F)F)c(=O)n1,0.832 µM,0.0512
O=c1nc(-c2ccccc2)cc(-c2ccccc2O)[nH]1,> 100 µM,–
Oc1ccc(Br)cc1C=Nc1ccc(N=Cc2cc(Br)ccc2O)cc1,> 100 µM,–
C/C(=N\NC(=S)N1CC2CCC(CC2)C1)c1ccccn1,1.81 µM,0.0428
O=C(NCc1ccc(S(=O)(=O)c2cc(F)cc(F)c2)cc1)c1ccc2nccn2c1,> 66.8 µM,> 33.7
NC(=S)N/N=C/c1cc(-c2cccc(N)c2)ccn1,34.6 µM,2.09
C=CCn1c2c(sc1=S)C(S)N=CN2 (stereo unspecified),> 100 µM,–
O=[N+]([O-])c1ccc(CSCc2ccc(Cl)cc2)cc1,> 100 µM,–
CCOc1ccccc1NC(=O)C(C#N)C1=C(Cl)C(=O)c2ccccc2C1=O (stereo unspecified),2.08 µM and 3.28 µM,1.38

# Test system: OVCAR-4 ovarian
# Assay: NCI-60 cell line screen, 48 h
SMILES,TGI,GI50 [µM]
O=c1c2ccccc2nc(-c2ccccc2)n1NC(=S)Nc1ccccc1,> 100 µM,–
Cn1cc(-c2ccc(-c3cncc(Cl)c3N3CCC4(CCNC4=O)CC3)cc2)cn1,> 100 µM,65.1
CC/C=C/C/C=C/C/C=C/C/C=C/C/C=C/C/C=C/CCC(=O)Nc1ccn([C@@H]2O[C@H](CO)[C@@H](O)C2(F)F)c(=O)n1,65.5 µM,17.5
O=c1nc(-c2ccccc2)cc(-c2ccccc2O)[nH]1,> 100 µM,–
Oc1ccc(Br)cc1C=Nc1ccc(N=Cc2cc(Br)ccc2O)cc1,> 100 µM,–
C/C(=N\NC(=S)N1CC2CCC(CC2)C1)c1ccccn1,1.1 µM,0.0238
O=C(NCc1ccc(S(=O)(=O)c2cc(F)cc(F)c2)cc1)c1ccc2nccn2c1,> 77.3 µM,11.3
NC(=S)N/N=C/c1cc(-c2cccc(N)c2)ccn1,> 100 µM,2.66
C=CCn1c2c(sc1=S)C(S)N=CN2 (stereo unspecified),> 100 µM,–
O=[N+]([O-])c1ccc(CSCc2ccc(Cl)cc2)cc1,> 100 µM,–
CCOc1ccccc1NC(=O)C(C#N)C1=C(Cl)C(=O)c2ccccc2C1=O (stereo unspecified),3.42 µM and 3.04 µM,1.67

# Test system: A498 renal
# Assay: NCI-60 cell line screen, 48 h
SMILES,TGI [µM],GI50 [µM]
O=c1c2ccccc2nc(-c2ccccc2)n1NC(=S)Nc1ccccc1,> 100,–
Cn1cc(-c2ccc(-c3cncc(Cl)c3N3CCC4(CCNC4=O)CC3)cc2)cn1,> 100,14.1
CC/C=C/C/C=C/C/C=C/C/C=C/C/C=C/C/C=C/CCC(=O)Nc1ccn([C@@H]2O[C@H](CO)[C@@H](O)C2(F)F)c(=O)n1,44.4,0.0566
O=c1nc(-c2ccccc2)cc(-c2ccccc2O)[nH]1,> 100,–
Oc1ccc(Br)cc1C=Nc1ccc(N=Cc2cc(Br)ccc2O)cc1,> 100,–
C/C(=N\NC(=S)N1CC2CCC(CC2)C1)c1ccccn1,1.91,0.416
O=C(NCc1ccc(S(=O)(=O)c2cc(F)cc(F)c2)cc1)c1ccc2nccn2c1,> 86.8,> 28.4
NC(=S)N/N=C/c1cc(-c2cccc(N)c2)ccn1,19.1,1.61
C=CCn1c2c(sc1=S)C(S)N=CN2 (stereo unspecified),> 100,–
O=[N+]([O-])c1ccc(CSCc2ccc(Cl)cc2)cc1,> 100,–
CCOc1ccccc1NC(=O)C(C#N)C1=C(Cl)C(=O)c2ccccc2C1=O (stereo unspecified),36.5,–

# Test system: RXF 393 renal
# Assay: NCI-60 cell line screen, 48 h
SMILES,TGI,GI50 [µM]
O=c1c2ccccc2nc(-c2ccccc2)n1NC(=S)Nc1ccccc1,> 100 µM,–
Cn1cc(-c2ccc(-c3cncc(Cl)c3N3CCC4(CCNC4=O)CC3)cc2)cn1,> 100 µM,18.2
CC/C=C/C/C=C/C/C=C/C/C=C/C/C=C/C/C=C/CCC(=O)Nc1ccn([C@@H]2O[C@H](CO)[C@@H](O)C2(F)F)c(=O)n1,18.3 µM,0.169
O=c1nc(-c2ccccc2)cc(-c2ccccc2O)[nH]1,> 100 µM,–
Oc1ccc(Br)cc1C=Nc1ccc(N=Cc2cc(Br)ccc2O)cc1,> 100 µM,–
C/C(=N\NC(=S)N1CC2CCC(CC2)C1)c1ccccn1,1.3 µM,0.226
O=C(NCc1ccc(S(=O)(=O)c2cc(F)cc(F)c2)cc1)c1ccc2nccn2c1,> 72.4 µM,> 44.8
NC(=S)N/N=C/c1cc(-c2cccc(N)c2)ccn1,42.4 µM,2.32
C=CCn1c2c(sc1=S)C(S)N=CN2 (stereo unspecified),> 100 µM,–
O=[N+]([O-])c1ccc(CSCc2ccc(Cl)cc2)cc1,> 100 µM,–
CCOc1ccccc1NC(=O)C(C#N)C1=C(Cl)C(=O)c2ccccc2C1=O (stereo unspecified),3.43 µM and 3.25 µM,–

# Test system: UO-31 renal
# Assay: NCI-60 cell line screen, 48 h
SMILES,TGI,GI50 [µM]
O=c1c2ccccc2nc(-c2ccccc2)n1NC(=S)Nc1ccccc1,> 100 µM,–
Cn1cc(-c2ccc(-c3cncc(Cl)c3N3CCC4(CCNC4=O)CC3)cc2)cn1,> 100 µM,29
CC/C=C/C/C=C/C/C=C/C/C=C/C/C=C/C/C=C/CCC(=O)Nc1ccn([C@@H]2O[C@H](CO)[C@@H](O)C2(F)F)c(=O)n1,4.28 µM,0.0486
O=c1nc(-c2ccccc2)cc(-c2ccccc2O)[nH]1,> 100 µM,–
Oc1ccc(Br)cc1C=Nc1ccc(N=Cc2cc(Br)ccc2O)cc1,> 100 µM,–
C/C(=N\NC(=S)N1CC2CCC(CC2)C1)c1ccccn1,1.63 µM,0.021
O=C(NCc1ccc(S(=O)(=O)c2cc(F)cc(F)c2)cc1)c1ccc2nccn2c1,> 100 µM,> 44.8
NC(=S)N/N=C/c1cc(-c2cccc(N)c2)ccn1,8.69 µM,0.907
C=CCn1c2c(sc1=S)C(S)N=CN2 (stereo unspecified),> 100 µM,–
O=[N+]([O-])c1ccc(CSCc2ccc(Cl)cc2)cc1,> 100 µM,–
CCOc1ccccc1NC(=O)C(C#N)C1=C(Cl)C(=O)c2ccccc2C1=O (stereo unspecified),3.1 µM and 2.86 µM,1.51
